The source of these data is patent EP1939186A1, “5-Fluorouracil derivatives and their use for the treatment of cancer” (Sulfidris S.r.l., priority 2006, dated 2008).

Type in all cases: cell-based
For data set [1], the system named is Cisplatin resistant human ovarian cancer cells. Nature of the data set: Toxicity assay (printed MTD assay) on resistant cells. The following applies: various concentrations (1-1000 µM) for 24, 48 or 72 hours. Here is the method: Cisplatin resistant human ovarian cancer cells were treated with compounds of example 1 and 4 in comparison with 5-FU at various concentrations (1-1000 µM) for 24, 48 or 72 hours. MTD assay was used for toxicity study.

For data set [2], the system named is colon tumour cells HCT 116. Nature of the data set: MTT assay (cell viability by mitochondrial dehydrogenase) on colon tumour cells. Particulars: in vitro, range of concentrations 1-100 µM. An excerpt: (§1) The compound described in example 4 has been tested in vitro on colon tumour cells HCT 116 and DLD 1. MTT assay was used for toxicity study (spectrophotometric measurement of cell viability by mitochondrial dehydrogenase).

In the next data set the test system is colon tumour cells DLD 1. The data set is described as above. The following applies: in vitro, range of concentrations 1-100 µM.
Excerpt: as §1

`CS(=O)(=O)SCCC(=O)OCn1cc(F)c(=O)[nH]c1=O` [Example 1, (5-fluoro-2,4-dioxo-3,4-dihydropyrimidin-1(2H)-yl)methyl 3-(methylsulfonylthio)propanoate]: the “biological activity in comparison with 5-FU” value in data set [1] is reported as “superior to 5-FU”.
For `CS(=O)(=O)SCCOC(=O)CNC(=O)n1cc(F)c(=O)[nH]c1=O` [Example 4, 2-(methylsulfonylthio)ethyl 2-(5-fluoro-2,4-dioxo-1,2,3,4-tetrahydropyrimidine-1-carboxamido)acetate], the “inhibit growth of colon tumour cells” value (in data set [2]; in the data set on colon tumour cells DLD 1) was “potently inhibit growth” each time. The “biological activity in comparison with 5-FU” value in data set [1] is listed as “superior to 5-FU”.
